The values below are quoted from earlier work in PMC6343925, “Cholesterol re-organisation and lipid de-packing by arginine-rich cell penetrating peptides: Role in membrane translocation” (PLoS ONE, 2019).

No end group written: not given here.

For the data set the following is noted: membranes contained PG; same experimental approach.

On to RRWWRRWRR-NH2 [RW9], for which the “translocation into LUVs” value is reported as “able to translocate”.
As for `N=C(N)NCCC[C@H](NC(=O)[C@H](CCCNC(=N)N)NC(=O)[C@H](CCCNC(=N)N)NC(=O)[C@H](CCCNC(=N)N)NC(=O)[C@H](CCCNC(=N)N)NC(=O)[C@H](CCCNC(=N)N)NC(=O)[C@H](CCCNC(=N)N)NC(=O)[C@H](CCCNC(=N)N)NC(=O)[C@@H](N)CCCNC(=N)N)C(N)=O` [R9, Nona-arginine], the “translocation into LUVs” value is recorded as “able to translocate”.
